This note sets out measurements from patent US6589934B1, “Kv2.1 antagonists” (SmithKline Beecham Corporation, priority 1997, dated 2003).

The experiment deals with T1, human kv2.1 (Homo sapiens, UniProt Q14721).
T1 construct: A HindIII-Notl fragment containing full length 2.1 was isolated from pBS/kv2.1 and subcloned to pcDNA3 for expression; expressed in transfected cells
T1 sequence (Q14721 1-858): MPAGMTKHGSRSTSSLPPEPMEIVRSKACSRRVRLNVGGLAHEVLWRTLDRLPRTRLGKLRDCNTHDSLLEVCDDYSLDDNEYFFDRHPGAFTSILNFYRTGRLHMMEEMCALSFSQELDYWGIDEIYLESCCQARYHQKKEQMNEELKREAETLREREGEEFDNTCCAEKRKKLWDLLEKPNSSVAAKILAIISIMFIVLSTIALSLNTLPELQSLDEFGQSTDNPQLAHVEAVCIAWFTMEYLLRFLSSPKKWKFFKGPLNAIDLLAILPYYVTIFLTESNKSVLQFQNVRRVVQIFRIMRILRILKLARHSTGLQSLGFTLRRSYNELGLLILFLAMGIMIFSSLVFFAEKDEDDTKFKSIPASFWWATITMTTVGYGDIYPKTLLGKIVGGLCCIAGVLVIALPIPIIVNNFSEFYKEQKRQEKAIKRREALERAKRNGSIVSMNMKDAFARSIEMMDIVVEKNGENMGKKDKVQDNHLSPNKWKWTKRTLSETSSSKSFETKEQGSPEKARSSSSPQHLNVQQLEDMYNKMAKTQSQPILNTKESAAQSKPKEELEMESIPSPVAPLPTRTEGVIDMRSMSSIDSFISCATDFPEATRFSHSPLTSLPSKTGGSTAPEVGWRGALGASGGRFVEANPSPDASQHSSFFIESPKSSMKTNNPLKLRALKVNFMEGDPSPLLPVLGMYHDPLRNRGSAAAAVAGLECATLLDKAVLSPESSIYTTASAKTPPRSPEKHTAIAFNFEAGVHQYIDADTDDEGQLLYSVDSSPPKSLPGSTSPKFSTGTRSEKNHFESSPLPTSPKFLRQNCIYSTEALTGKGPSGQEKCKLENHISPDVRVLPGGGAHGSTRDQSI
Description: Whole cell patch clamp block of Kv2.1 in stably expressing CHO cells. The settings on record: CHO cells stably expressing Kv2.1, whole cell patch clamp. Format: cell-based. The source says:
Full length cDNA of human kv2.1 was amplified from human brain polyA RNA by PCR. Oligo primers used for PCR amplification were designed according to the GeneBank accession# X68302 . The sequences of the two primers are: (5′ PCR primer) 5′-[…] (SEQ ID NO: 1), (3′ PCR primer) 5′-[…] (SEQ ID NO: 2). The cDNA was subcloned into pBS and sequenced. A HindIII-Notl fragment containing full length 2.1 was isolated from pBS/kv2.1 and subcloned to pcDNA3 for expression. The clone was transferred to pcDNA3 under the CMV promotor. […] Specifically, 1.5 μg of plasmid DNA (1.2 μg of Kv2.1 Plasmid and 0.3 μg of GFP plasmid Green Lantern™ (GIBCO)) was pre-incubated with 100 μl of DMEM/F12 and 12 μl of lipofectamine for a minimum of 15 minutes. Following incubation 1.4 ml of DMEM/F12 was added and the mixture overlayed on CHO cells (70-90% confluent) in a 6 well tray (1.5 ml/well). After 6-8 hours incubation an additional 1.5 ml of DMEM/F12 media containing 10% FBS was added to the transfection reaction. After a further overnight incubation the cells were removed from the 6 well plate with […] and plated at single cell density (10% Confluency) in 6 well plates contianing 25 mm glass coverslips. After overnight incubation, GFP containing cells were patched for current.
Stable CHO lines were prepared by using the same transfection protocol as above excluding the GFP DNA. […]
A general note: The patch-clamp technique gives a direct electrical read-out from membranes.

`CN1C[C@@H]2CN(CCCCc3ccc4c(c3)OCCO4)C[C@H](C1)[C@@H]2OC(=O)c1ccc(Cl)cc1` [Example 4]: the half-maximal inhibitory concentration (IC50) (usually the point on the concentration scale where inhibition reaches its midpoint) is approximately 300 nM.

In turn, “hanatoxin (ECRYLFGGCKTTSDCCKHLGCKFRDKYCAWDFTFS) [reference compound]” returned a 50% inhibitory concentration (IC50) of approximately 60 nM.
